According to ChEMBL document CHEMBL4507258 (2021):
pKi: −log10 of the molar value.

Key:
[1] = molecular target: Alpha-2B adrenergic receptor (Homo sapiens, UniProt P18089); experiment: GPCRScan assay: inhibition of Alpha2B; design: radioligand conc. used [nm] 1.5 – 2.0, parental cells HEKT
[2] = molecular target: 5-hydroxytryptamine receptor 1A (Homo sapiens, UniProt P08908); experiment: GPCRScan assay: inhibition of 5-HT1A; design: radioligand conc. used [nm] 0.5 – 1.0, parental cells stable CHO
[3] = molecular target: 5-hydroxytryptamine receptor 6 (Homo sapiens) (UniProt P50406); details: Compound concentration 10.0 uM
5-hydroxytryptamine receptor 6 (Homo sapiens), sequence (P50406 whole entry): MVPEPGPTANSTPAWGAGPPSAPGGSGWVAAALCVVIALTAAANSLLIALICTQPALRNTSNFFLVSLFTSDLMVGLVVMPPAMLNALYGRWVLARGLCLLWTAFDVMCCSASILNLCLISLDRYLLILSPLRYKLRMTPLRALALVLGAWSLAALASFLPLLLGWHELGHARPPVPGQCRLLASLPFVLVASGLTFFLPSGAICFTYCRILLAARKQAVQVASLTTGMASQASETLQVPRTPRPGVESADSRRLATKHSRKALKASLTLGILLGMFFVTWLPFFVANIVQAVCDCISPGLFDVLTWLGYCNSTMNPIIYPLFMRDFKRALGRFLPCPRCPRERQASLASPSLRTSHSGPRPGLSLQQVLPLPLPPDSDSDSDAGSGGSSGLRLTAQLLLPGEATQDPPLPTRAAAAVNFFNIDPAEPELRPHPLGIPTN

[4] = molecular target: 5-hydroxytryptamine receptor 2C (Homo sapiens) (UniProt P28335); details: Compound concentration 10.0 uM
5-hydroxytryptamine receptor 2C (Homo sapiens), sequence (P28335 whole entry): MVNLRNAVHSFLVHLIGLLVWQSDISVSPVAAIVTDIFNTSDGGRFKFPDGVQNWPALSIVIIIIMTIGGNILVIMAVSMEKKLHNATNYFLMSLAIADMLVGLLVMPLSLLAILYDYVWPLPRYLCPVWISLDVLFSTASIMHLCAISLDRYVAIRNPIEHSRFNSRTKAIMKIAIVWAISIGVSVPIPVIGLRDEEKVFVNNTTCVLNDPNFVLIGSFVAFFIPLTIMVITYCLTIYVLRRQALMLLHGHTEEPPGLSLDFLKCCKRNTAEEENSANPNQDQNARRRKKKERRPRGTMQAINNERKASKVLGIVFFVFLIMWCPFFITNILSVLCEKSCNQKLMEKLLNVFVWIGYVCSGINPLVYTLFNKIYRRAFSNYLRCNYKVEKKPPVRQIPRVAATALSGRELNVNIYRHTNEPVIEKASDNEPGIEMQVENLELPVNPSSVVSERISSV

[5] = molecular target: Neuromedin-K receptor (Homo sapiens) (UniProt P29371); experiment: NK3 tachykinin receptor (h) CEREP ligand profiling; details: Compound concentration 10.0 uM
Neuromedin-K receptor (Homo sapiens), sequence (P29371 whole entry): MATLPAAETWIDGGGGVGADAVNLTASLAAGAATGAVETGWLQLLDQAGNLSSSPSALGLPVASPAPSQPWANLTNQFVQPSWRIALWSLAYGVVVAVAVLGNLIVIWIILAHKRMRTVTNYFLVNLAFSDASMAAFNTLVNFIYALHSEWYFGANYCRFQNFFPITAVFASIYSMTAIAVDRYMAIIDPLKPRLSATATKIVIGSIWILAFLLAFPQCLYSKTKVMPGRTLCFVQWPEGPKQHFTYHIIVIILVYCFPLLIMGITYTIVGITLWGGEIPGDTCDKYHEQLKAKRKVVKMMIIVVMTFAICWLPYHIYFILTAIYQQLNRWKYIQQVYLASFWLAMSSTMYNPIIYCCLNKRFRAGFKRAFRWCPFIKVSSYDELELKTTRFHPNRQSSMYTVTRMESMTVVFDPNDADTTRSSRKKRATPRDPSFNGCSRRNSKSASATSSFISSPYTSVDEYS

[6] = molecular target: Endothelin-1 receptor (Homo sapiens) (UniProt P25101); details: Compound concentration 10.0 uM
Endothelin-1 receptor (Homo sapiens), sequence (P25101 whole entry): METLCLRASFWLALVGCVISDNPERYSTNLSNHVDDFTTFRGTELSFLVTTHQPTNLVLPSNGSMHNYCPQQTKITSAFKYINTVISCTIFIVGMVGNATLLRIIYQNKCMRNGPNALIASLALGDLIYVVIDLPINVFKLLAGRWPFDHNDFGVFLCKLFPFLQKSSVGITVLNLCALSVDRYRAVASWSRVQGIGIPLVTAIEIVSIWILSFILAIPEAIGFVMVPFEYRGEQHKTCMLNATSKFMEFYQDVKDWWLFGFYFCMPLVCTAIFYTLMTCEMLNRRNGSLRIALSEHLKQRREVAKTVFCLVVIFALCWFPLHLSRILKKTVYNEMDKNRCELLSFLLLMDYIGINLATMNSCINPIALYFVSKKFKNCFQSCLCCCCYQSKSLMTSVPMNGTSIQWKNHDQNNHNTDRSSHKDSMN

[7] = molecular target: B2 bradykinin receptor (Homo sapiens) (UniProt P30411); experiment: Bradykinin B2 receptor (h) CEREP ligand profiling; details: Compound concentration 10.0 uM
[8] = molecular target: Sodium channel (site 1) (Homo sapiens, UniProt P35498+P35499+Q01118+Q14524+Q15858+Q99250+Q9NY46+Q9UI33+Q9UQD0+Q9Y5Y9); experiment: Na+ channel (site1) CEREP ligand profiling; format: protein assay; details: compound concentration 10 uM
[9] = molecular target: Muscarinic acetylcholine receptor M5 (Homo sapiens) (UniProt P08912); experiment: Muscarinic M5 receptors (h) CEREP ligand profiling; details: Compound concentration 10.0 uM
Muscarinic acetylcholine receptor M5 (Homo sapiens), sequence (P08912 whole entry): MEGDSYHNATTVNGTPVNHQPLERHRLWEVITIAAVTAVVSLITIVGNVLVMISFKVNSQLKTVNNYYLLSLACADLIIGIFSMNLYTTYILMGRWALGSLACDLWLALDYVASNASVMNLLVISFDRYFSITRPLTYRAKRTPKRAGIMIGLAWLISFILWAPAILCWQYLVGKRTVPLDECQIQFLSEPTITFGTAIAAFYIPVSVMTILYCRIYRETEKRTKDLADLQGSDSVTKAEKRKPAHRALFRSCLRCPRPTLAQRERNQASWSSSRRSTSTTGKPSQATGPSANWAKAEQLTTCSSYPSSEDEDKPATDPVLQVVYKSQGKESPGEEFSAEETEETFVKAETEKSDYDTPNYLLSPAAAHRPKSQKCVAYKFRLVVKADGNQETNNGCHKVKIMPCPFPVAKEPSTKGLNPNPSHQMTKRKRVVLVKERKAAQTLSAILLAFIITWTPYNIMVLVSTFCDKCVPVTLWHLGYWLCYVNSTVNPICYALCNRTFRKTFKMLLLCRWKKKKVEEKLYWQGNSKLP

[10] = molecular target: D(2) dopamine receptor (Homo sapiens) (UniProt P14416); experiment: Dopamine D2 receptor (h) CEREP ligand profiling; details: Compound concentration 10.0 uM
[11] = molecular target: Calcium/calmodulin-dependent protein kinase type 1B (Homo sapiens, UniProt Q6P2M8); experiment: Inhibition of PNCK at compound concentration of 10.0 uM using the ScanMax (DiscoverX)
Calcium/calmodulin-dependent protein kinase type 1B, sequence (Q6P2M8 whole entry): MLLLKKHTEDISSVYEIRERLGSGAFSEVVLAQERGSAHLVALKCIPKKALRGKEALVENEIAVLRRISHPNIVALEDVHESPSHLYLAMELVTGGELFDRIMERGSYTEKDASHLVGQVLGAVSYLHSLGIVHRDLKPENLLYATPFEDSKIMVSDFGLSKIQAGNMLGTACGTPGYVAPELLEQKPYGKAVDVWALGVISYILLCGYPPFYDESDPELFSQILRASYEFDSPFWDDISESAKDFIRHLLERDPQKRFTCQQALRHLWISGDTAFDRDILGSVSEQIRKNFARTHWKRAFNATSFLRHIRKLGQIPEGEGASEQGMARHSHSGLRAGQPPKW

[12] = molecular target: Platelet-derived growth factor receptor (Homo sapiens) (UniProt P09619+P16234); experiment: Platlet-derived growth factor receptor CEREP ligand profiling; format: protein-complex assay; details: Compound concentration 10.0 uM
[13] = molecular target: Delta-type opioid receptor (Homo sapiens) (UniProt P41143); experiment: delta-Opioid receptor (h) CEREP ligand profiling; details: Compound concentration 10.0 uM
[14] = molecular target: GABA-A receptor; anion channel (Homo sapiens) (UniProt P14867+P47870+P18507+P28472+P48169+Q99928+Q9UN88+P34903+O00591+O14764+Q8N1C3+P18505+P78334+P47869+P31644+Q16445); experiment: Benzodiazepine (central) CEREP ligand profiling; format: protein-complex assay; details: Compound concentration 10.0 uM
[15] = molecular target: 5-hydroxytryptamine receptor 6 (Homo sapiens) (UniProt P50406); experiment: 5-Hydroxytryptamine6 (h) CEREP ligand profiling; details: Compound concentration 10.0 uM
[16] = molecular target: Calcitonin gene-related peptide type 1 receptor (Homo sapiens) (UniProt Q16602); experiment: Calcitonin gene-related peptide CEREP ligand profiling; details: Compound concentration 10.0 uM
[17] = molecular target: Death-associated protein kinase 3 (Homo sapiens, UniProt O43293); experiment: Inhibition of DAPK3 at compound concentration of 10.0 uM using the ScanMax (DiscoverX)
Death-associated protein kinase 3, sequence (O43293 whole entry): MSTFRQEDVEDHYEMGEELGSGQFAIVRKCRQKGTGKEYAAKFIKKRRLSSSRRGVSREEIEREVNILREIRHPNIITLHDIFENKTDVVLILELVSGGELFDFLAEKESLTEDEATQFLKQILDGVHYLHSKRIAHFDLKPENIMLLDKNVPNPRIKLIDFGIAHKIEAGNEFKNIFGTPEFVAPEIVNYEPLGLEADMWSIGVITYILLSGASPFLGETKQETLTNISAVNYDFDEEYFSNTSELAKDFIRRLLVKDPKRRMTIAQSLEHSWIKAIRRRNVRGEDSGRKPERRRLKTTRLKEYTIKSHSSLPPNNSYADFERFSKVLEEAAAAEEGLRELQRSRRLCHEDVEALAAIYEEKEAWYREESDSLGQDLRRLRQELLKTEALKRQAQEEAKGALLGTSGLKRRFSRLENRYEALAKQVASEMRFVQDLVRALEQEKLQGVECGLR

[18] = molecular target: Vasoactive intestinal peptide receptor (Homo sapiens) (UniProt P41587+P32241+P41586); experiment: Vasoactive intestinal peptide receptor CEREP ligand profiling; format: protein assay; details: Compound concentration 10.0 uM
[19] = molecular target: 5-hydroxytryptamine receptor 1B (Homo sapiens) (UniProt P28222); experiment: 5-Hydroxytryptamine1B CEREP ligand profiling; details: Compound concentration 10.0 uM
[20] = molecular target: Muscarinic acetylcholine receptor M3 (Homo sapiens) (UniProt P20309); experiment: Muscarinic M3 receptors (h) CEREP ligand profiling; details: Compound concentration 10.0 uM
[21] = molecular target: Vasopressin V2 receptor (Homo sapiens) (UniProt P30518); experiment: Vasopresine V2 receptor CEREP ligand profiling; details: Compound concentration 10.0 uM
[22] = molecular target: GABA-A receptor; anion channel (Rattus norvegicus) (UniProt O09028+P15431+P18506+P18508+P19969+P20236+P23574+P23576+P28471+P28473+P30191+P62813+P63079+P63138+Q91ZM7+Q9ES14); details: Compound concentration 10.0 uM
[23] = molecular target: Type-2 angiotensin II receptor (Homo sapiens) (UniProt P50052); experiment: Angiotensin AT2 receptor (h) CEREP ligand profiling; details: Compound concentration 10.0 uM
Type-2 angiotensin II receptor (Homo sapiens), sequence (P50052 whole entry): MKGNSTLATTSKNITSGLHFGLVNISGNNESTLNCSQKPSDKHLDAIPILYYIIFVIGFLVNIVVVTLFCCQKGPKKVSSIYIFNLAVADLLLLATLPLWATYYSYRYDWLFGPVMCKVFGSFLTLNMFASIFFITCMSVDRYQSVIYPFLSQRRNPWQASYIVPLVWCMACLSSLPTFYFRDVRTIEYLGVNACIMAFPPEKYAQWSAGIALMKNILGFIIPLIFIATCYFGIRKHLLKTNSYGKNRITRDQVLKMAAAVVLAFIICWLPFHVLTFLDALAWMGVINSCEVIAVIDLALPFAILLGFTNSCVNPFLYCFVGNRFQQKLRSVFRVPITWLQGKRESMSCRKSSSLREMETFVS

[24] = molecular target: T1, 5-hydroxytryptamine receptor 1A (Homo sapiens) (UniProt P08908); experiment: 5-Hydroxytryptamine1A (h) CEREP ligand profiling; details: Compound concentration 10.0 uM
T1 sequence (whole entry): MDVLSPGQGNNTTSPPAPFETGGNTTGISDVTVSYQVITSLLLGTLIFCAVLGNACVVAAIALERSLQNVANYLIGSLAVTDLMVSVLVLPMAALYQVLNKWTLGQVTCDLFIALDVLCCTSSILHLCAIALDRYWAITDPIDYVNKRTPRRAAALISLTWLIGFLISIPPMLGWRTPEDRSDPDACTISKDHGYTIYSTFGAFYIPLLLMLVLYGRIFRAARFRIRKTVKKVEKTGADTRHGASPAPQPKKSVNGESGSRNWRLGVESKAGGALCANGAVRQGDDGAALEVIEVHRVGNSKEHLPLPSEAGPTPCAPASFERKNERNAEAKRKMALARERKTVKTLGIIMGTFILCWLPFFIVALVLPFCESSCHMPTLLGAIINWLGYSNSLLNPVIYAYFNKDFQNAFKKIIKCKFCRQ

[25] = molecular target: Muscarinic acetylcholine receptor M4 (Homo sapiens) (UniProt P08173); details: Compound concentration 10.0 uM
Muscarinic acetylcholine receptor M4 (Homo sapiens), sequence (P08173 whole entry): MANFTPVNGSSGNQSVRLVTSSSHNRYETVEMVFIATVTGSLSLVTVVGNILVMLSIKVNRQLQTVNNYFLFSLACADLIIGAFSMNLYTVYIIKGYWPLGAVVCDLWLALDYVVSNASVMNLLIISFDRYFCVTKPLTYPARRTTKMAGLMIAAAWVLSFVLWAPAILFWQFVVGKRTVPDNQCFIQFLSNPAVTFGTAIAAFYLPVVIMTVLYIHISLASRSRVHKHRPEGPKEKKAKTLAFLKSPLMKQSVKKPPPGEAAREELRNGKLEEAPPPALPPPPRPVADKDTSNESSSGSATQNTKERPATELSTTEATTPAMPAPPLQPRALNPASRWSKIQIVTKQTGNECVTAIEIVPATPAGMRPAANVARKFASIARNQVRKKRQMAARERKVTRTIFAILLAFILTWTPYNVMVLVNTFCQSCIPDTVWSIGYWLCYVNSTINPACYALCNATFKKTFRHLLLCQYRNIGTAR

[26] = molecular target: Adenosine receptor A1 (Homo sapiens) (UniProt P30542); experiment: Adenosine A1 receptor (h) CEREP ligand profiling; details: Compound concentration 10.0 uM
[27] = molecular target: 5-hydroxytryptamine receptor 7 (Homo sapiens) (UniProt P34969); experiment: 5-Hydroxytryptamine7 (h) CEREP ligand profiling; details: Compound concentration 10.0 uM
5-hydroxytryptamine receptor 7 (Homo sapiens), sequence (P34969 whole entry): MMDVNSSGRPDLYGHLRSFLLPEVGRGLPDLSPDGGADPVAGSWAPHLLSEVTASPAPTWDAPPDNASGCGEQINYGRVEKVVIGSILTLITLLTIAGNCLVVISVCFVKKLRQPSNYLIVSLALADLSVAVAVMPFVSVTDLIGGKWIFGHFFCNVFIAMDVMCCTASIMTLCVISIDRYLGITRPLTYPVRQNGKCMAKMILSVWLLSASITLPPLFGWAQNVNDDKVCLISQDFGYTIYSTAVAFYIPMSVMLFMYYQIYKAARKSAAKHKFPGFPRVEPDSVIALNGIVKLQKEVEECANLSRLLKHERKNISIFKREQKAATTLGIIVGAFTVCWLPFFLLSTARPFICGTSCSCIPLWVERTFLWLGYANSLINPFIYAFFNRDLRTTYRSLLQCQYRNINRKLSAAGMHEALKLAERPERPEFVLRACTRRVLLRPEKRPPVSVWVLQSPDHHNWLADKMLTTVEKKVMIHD

[28] = molecular target: Neurotensin receptor (Homo sapiens) (UniProt O95665+P30989); experiment: Neurotensin receptor (h) CEREP ligand profiling; format: protein assay; details: Compound concentration 10.0 uM
[29] = molecular target: 5-hydroxytryptamine receptor 2C (Homo sapiens) (UniProt P28335); experiment: 5-Hydroxytryptamine2C (h) CEREP ligand profiling; details: Compound concentration 10.0 uM
[30] = GABA receptor (non-selective) CEREP ligand profiling; details: Compound concentration 10.0 uM
[31] = molecular target: Histamine H1 receptor (Homo sapiens, UniProt P35367); experiment: GPCRScan assay: inhibition of H1; design: radioligand conc. used [nm] 0.6 – 2.0, parental cells stable HEK

Alpha-2B adrenergic receptor, sequence (P18089 whole entry): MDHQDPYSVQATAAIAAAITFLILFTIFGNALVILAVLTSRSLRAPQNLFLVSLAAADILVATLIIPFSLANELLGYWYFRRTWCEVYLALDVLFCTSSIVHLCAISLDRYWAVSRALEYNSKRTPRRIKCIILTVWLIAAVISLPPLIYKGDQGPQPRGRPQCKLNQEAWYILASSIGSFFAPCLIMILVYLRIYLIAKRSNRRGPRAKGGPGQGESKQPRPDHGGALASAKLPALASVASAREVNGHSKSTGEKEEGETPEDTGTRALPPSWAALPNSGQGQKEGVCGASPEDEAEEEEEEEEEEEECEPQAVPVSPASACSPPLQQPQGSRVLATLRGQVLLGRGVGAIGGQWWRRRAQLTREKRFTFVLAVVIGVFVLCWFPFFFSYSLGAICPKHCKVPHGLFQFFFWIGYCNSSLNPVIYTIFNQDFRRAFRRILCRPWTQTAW

With `CCCCN(CCCC)C(=O)CN1C[C@@H](c2cc(OC)c3c(c2)OCO3)[C@H](C(=O)O)[C@H]1CC(C)(C)CCC` [A-545] as the compound, how does the pKi ([1]; read-out: Ki) read?
The pKi was 5.33.

And the Ki ([1]; read-out: pKi (converted))?
Its Ki is 4.17 µM.

What about the pKi [2] of the same compound?
Its pKi is 6.72.

What about the inhibition [3] of the same compound?
Its inhibition is 33.5%.

And the inhibition [4]?
Its inhibition is 15.7%.

Which results are given for `CCCCN(CCCC)C(=O)CN1C[C@H](c2cc(OC)c3c(c2)OCO3)[C@@H](C(=O)O)[C@@H]1CC(C)(C)CCC` [ABT-546]?
inhibition [5]: < 10%; inhibition [6]: 98%; inhibition [7]: < 10%; inhibition at 10 µM [8]: 22% (not active); inhibition [9]: < 10%; inhibition [10]: < 10%; Kd [11]: > 10 µM (not active); inhibition [12]: < 10%; inhibition [13]: 62%; inhibition [14]: < 10%; inhibition [15]: < 10%; inhibition [16]: < 10%; Kd [17]: > 10 µM (not active); inhibition [18]: < 10%; inhibition [19]: < 10%; inhibition [20]: < 10%; inhibition [21]: < 10%; inhibition [22]: -5.72%; inhibition [23]: < 10%; inhibition [24]: < 10%; inhibition [25]: 8.5%; inhibition [26]: 23%; inhibition [27]: < 10%; inhibition [28]: < 10%; inhibition [29]: < 10%; inhibition [30]: < 10%; pKi [31]: 5.00
